The values that follow come from patent US9718825B2, “N-(4-(azaindazol-6-yl)-phenyl)-sulfonamides and their use as pharmaceuticals” (priority 2013, dated 2017).

For experiment [1], the system named is collagen type X (Col10a1) expression in mouse chondrogenic ATDC5 cells. In words: Chondrocyte hypertrophic differentiation in mouse chondrogenic ATDC5 cells (collagen type X expression). Type of experiment: cell-based. The note with it: Col10a1 expression by quantitative real-time PCR after two weeks of cell culture; read-out: IC50 values for the inhibition of collagen type X expression in mouse chondrogenic ATDC5 cells. An excerpt:
D) Determination of the effect on chondrocyte hypertrophic differentiation in mouse chondrogenic ATDC5 cells
The ATDC5 cell assay was used as in vitro model to determine the effects of the compounds of the invention on chondrocyte hypertrophic differentiation by monitoring the expression levels of collagen type X (Col10a1) as specific marker of chondrocyte hypertrophy.
Background: ATDC5 cells are a clonal mouse embryonic cell line derived from multipotent AT805 teratocarcinoma cells (Atsumi, T. et al., A chondrogenic cell line derived from a differentiating culture of AT805 teratocarcinoma cells, Cell Differ. Dev. 1990, 30, 109-116). The cells can undergo insulin-dependent chondrogenic cell differentiation entailing distinct differentiation stages starting from an undifferentiated, subconfluent stage, a condensation stage, a cartilage nodule formation stage and a calcification stage within 45 days of in vitro culture. Chondrogenic differentiation can be shown by measuring the expression of the cartilage main collagen (Col2a1) and aggrecan (AGC1) and glycosaminoglycan-staining with Alcian Blue within two weeks after insulin-triggered differentiation, and hypertrophic differentiation can be monitored by the expression of collagen type X (Col10a1), a specific marker of chondrocyte hypertrophy within 21 days of in vitro culture. (Shukunami, C. et al., Chondrogenic Differentiation of Clonal Mouse Embryonic Cell Lne ATDC5 In Vitro: Differentiation-dependent Gene Expression of Parathyroid Hormone (PTH)/PTH-related Peptide Receptor, J. Cell Biol. 1996, 133, 457-468). Growth factor BMP-2 is known to stimulate cell differentiation and can stimulate early and late-phase ATDC5 differentiation (Shukunami, C. et al., Sequential Progression of the Differentiation Program by Bone Morphogenetic Protein-2 in Chondrogenic Cell Line ATDC5, Exp. Cell Res. 1998, 241, 1-11). Thyroid hormone triiodothyronine (T3) promotes hypertrophic differentiation of growth plate chondrocytes (Robson, H. et al., Thyroid Hormone Acts Directly on Growth Plate Chondrocytes to Promote Hypertrophic Differentiation and Inhibit Clonal Expansion and Cell Proliferation, Endocrinology 2000, 141, 3887-3897). Addition of BMP2 and T3 can accelerate ATDC5 hypertrophic differentiation leading to the strong induction Col10a1 expression between 10-14 days. SGK-inhibitors were added to differentiating ATDC5 cells for 14 days and Col10a1 gene expression was quantified to determine effects on chondrocyte hypertrophic differentiation.
Cell assay description: ATDC5 cells were maintained in 300 cm^2 tissue culture flasks in DMEM/Ham's F12+5% FCS supplemented with 10 μg/ml human transferrin, 30 nM sodium selenite, 50 μg/ml kanamycin and grown at 37° C. in 5% CO2 in 95% air. To initiate cell differentiation, 9.9×10^4 cells were plated in 24 well plates and grown for 2 days. Medium was exchanged with DMEM/Ham's F12+5% FCS supplemented with 10 μg/ml human transferrin, 30 nM sodium selenite, 50 μg/ml ascorbic acid and 1 μg/ml BMP2. The assay was run in triplicates, compounds were added in […], and medium changed every 2-3 days including supplementation of compound. At day 7 after initiation of cell differentiation, 1 μM T3 was used as additional supplement in the cell culture.
After two weeks of cell culture, RNA was isolated and converted to cDNA for determination of gene expression by quantitative real-time PCR. Cells were lysed in 600 μl of RLT-buffer (Qiagen) and total RNA was isolated using the RNA-easy Mini RNA isolation Kit (Qiagen) which was run on a Qiacube system (Qiagen) according to the supplier's instructions. RNA was isolated in 30 μl of pure water and the RNA content measured by UV-spectroscopy (Nanodrop, Peqlab). For cDNA synthesis 50 ng total RNA was reverse transcribed using the High Capacity cDNA Reverse Transcription Kit (Applied Biosystems, Product Number 4368813) according to the manufacturer's instructions. […]
For orientation: Real-time PCR tracks product formation cycle by cycle.

For experiment [2], the target named is recombinant human SGK-1 enzyme (Homo sapiens, UniProt O00141). Briefly: Enzymatic activity assay: SGK-1 substrate peptide phosphorylation (Caliper lab-chip mobility shift). It is filed as biochemical. As to conditions: peptide substrate 1 μM, ATP 10 μM, 60 min at 37° C., read-out: IC50 values for inhibition of SGK-1 enzymatic activity.
For experiment [3], the system named is SGK-1 dependent phosphorylation of GSK3beta in U2OS cells. Briefly: SGK-1 dependent phosphorylation of GSK3beta in U2OS cells overexpressing recombinant SGK-1 and GSK3beta. As to conditions: U2OS cells, 6 h incubation, ratio of phosphorylated GSK3beta to total GSK3beta; read-out: IC50 values for inhibition of SGK-1 dependent phosphorylation of GSK3beta in U2OS cells. Type of experiment: cell-based, human.

Chain of recombinant human SGK-1 enzyme (O00141 whole entry, looked up): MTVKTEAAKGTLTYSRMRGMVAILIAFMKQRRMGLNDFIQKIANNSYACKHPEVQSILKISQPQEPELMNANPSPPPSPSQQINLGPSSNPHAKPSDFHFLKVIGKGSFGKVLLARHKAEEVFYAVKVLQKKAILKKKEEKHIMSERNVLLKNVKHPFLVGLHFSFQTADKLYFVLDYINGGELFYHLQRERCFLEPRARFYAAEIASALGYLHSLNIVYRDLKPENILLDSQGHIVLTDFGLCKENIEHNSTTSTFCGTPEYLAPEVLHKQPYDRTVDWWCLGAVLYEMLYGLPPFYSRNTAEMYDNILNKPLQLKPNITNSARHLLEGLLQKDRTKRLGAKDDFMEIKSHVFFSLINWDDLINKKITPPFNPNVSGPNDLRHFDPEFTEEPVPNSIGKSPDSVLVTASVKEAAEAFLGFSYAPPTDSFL

As for `O=S(=O)(Nc1ccc(-c2nc(OCCO)c3cn[nH]c3n2)cc1)c1cc(Cl)ccc1F` [Example 32], the IC50 turned out to be 280 nM in experiment [1] and 5.1 nM in experiment [2]. `Cc1ccc(C#N)c(S(=O)(=O)Nc2ccc(-c3nc(OCCCO)c4c(C)n[nH]c4n3)cc2)c1` [Example 380]: the values for the IC50 in experiment [1] and in experiment [2] were 120 nM and 12 nM, respectively. The like results for `COCCCN1CCC(Oc2nc(-c3ccc(NS(=O)(=O)c4cc(F)ccc4F)cc3)nc3[nH]ncc23)CC1` [Example 394] were, in that order, 290 nM and 120 nM. For `CCN1CCCC(Oc2nc(-c3ccc(NS(=O)(=O)c4cc(Cl)ccc4F)cc3)nc3[nH]nc(C)c23)C1` (stereo not shown) [Example 418], the IC50 in experiment [1] worked out at 30 nM; in experiment [2], 40 nM. In the case of `CCOc1nc(-c2ccc(NS(=O)(=O)c3cc(Cl)ccc3Cl)cc2)nc2[nH]nc(C)c12` [Example 426], the IC50 turned out to be 60 nM in experiment [1] and 11 nM in experiment [2]. Taken in the same sequence, the figures for `CCN1CCCC(Oc2nc(-c3ccc(NS(=O)(=O)c4cc(OC)ccc4F)cc3)nc3[nH]nc(C)c23)C1` (stereo not shown) [Example 424] were 62 nM and 13 nM. Taken in the same sequence, the figures for `COCCCN1CCC(Oc2nc(-c3ccc(NS(=O)(=O)c4cc(F)ccc4F)cc3)nc3[nH]nc(C)c23)CC1` [Example 397] were 92 nM and 8.2 nM. Consider `CCOc1nc(-c2ccc(NS(=O)(=O)c3cc(Cl)c(F)cc3F)cc2)nc2[nH]nc(N)c12` [Example 451], for which the half-maximal inhibitory concentration (IC50) in experiment [1] was determined as 10 nM; in experiment [2], 0.57 nM.

`CC(=O)N1CCC(Oc2nc(-c3ccc(NS(=O)(=O)c4cc(Cl)ccc4F)cc3)cc3[nH]nc(C)c23)CC1` [Example 646]: the 50% inhibitory concentration (IC50) was determined as 340 nM in experiment [1] and 11 nM in experiment [2].

On to `Cc1n[nH]c2nc(-c3ccc(NS(=O)(=O)c4cc(F)ccc4F)cc3)nc(OC3CCN(CCF)CC3)c12` [Example 344], for which the IC50 in experiment [1] was found to be 16 nM; in experiment [2] it was 5 nM. Consider `COc1ccc(F)c(S(=O)(=O)Nc2ccc(-c3nc(OC4CCN(C(C)C)CC4)c4c(C)n[nH]c4n3)cc2)c1` [Example 357], for which the IC50 in experiment [1] turned out to be 61 nM; in experiment [2] it was 3.6 nM.

In the case of `Cc1n[nH]c2nc(-c3ccc(NS(=O)(=O)c4cc(Cl)ccc4F)cc3)nc(OCCCO)c12` [Example 391], the IC50 in experiment [1] is 120 nM; in experiment [2] it was 9.6 nM. Turning to `Cc1n[nH]c2nc(-c3ccc(NS(=O)(=O)c4cc(Cl)ccc4Cl)cc3)nc(OCCCO)c12` [Example 378], the IC50 in experiment [1] was determined as 57 nM; in experiment [2] it was 5.8 nM.

Turning to `CCN1CCCC(Oc2nc(-c3ccc(NS(=O)(=O)c4cc(Cl)ccc4Cl)cc3)nc3[nH]nc(C)c23)C1` (stereo not shown) [Example 422], the IC50 in experiment [1] came out at 110 nM; in experiment [2], 40 nM.

Consider `O=S(=O)(Nc1ccc(-c2nc(O[C@H]3CC[C@@H](O)CC3)c3cn[nH]c3n2)cc1)c1cc(Cl)ccc1F` [Example 79], for which the half-inhibitory concentration (IC50) in experiment [1] stood at 25 nM.

Regarding `COCCc1nc(-c2ccc(NS(=O)(=O)c3cc(Cl)sc3Cl)cc2)nc2[nH]nc(N)c12` [Example 509], the results for the IC50 in experiment [2] and in experiment [3] were 310 nM and 2500 nM, respectively. `COc1ccc(Cl)c(S(=O)(=O)Nc2ccc(-c3nc(OCC(C)C)c4c(N)n[nH]c4n3)cc2)c1` [Example 332]: the IC50 in experiment [2] came out at 27 nM; in experiment [3], 190 nM. On to `Nc1n[nH]c2nc(-c3ccc(NS(=O)(=O)c4cc(Cl)ccc4Cl)cc3)nc(OCC(F)(F)F)c12` [Example 195], for which the figures for the 50% inhibitory concentration (IC50) in experiment [2] and in experiment [3] were 5.4 nM and 210 nM, respectively. Turning to `Cc1n[nH]c2nc(-c3ccc(NS(=O)(=O)c4cc(Cl)ccc4Cl)cc3)nc(OC3CCN(C(C)C)CC3)c12` [Example 351], the IC50 is 43 nM in experiment [1] and 3.8 nM in experiment [2]. For `O=S(=O)(Nc1ccc(-c2nc(OCC3CNCCO3)c3cn[nH]c3n2)cc1)c1cc(Cl)ccc1Cl` (stereo not shown) [Example 312], the values for the IC50 in experiment [2] and in experiment [3] were 6 nM and 130 nM, respectively. `COc1ccc(F)c(S(=O)(=O)Nc2ccc(-c3nc(OC4CCCNC4)c4c(C)n[nH]c4n3)cc2)c1` (stereo not shown) [Example 294]: the half-maximal inhibitory concentration (IC50) in experiment [2] is 3.5 nM; in experiment [3] it was 270 nM. For the molecule `COCCc1nc(-c2ccc(NS(=O)(=O)c3cc(Cl)ccc3F)cc2)nc2[nH]nc(N)c12` [Example 506], the concentration for half-maximal inhibition (IC50) in experiment [2] was found to be 110 nM; in experiment [3], 670 nM.

In the case of `N#Cc1c(Cl)cccc1S(=O)(=O)Nc1ccc(-c2ncc3c(N)n[nH]c3n2)cc1` [Example 456], the IC50 in experiment [2] worked out at 6.2 nM; in experiment [3] it was 8900 nM. Consider `Cc1n[nH]c2nc(-c3ccc(NS(=O)(=O)c4cc(Cl)ccc4Cl)c(F)c3)ncc12` [Example 434], for which the IC50 worked out at 1.8 nM in experiment [2] and 3500 nM in experiment [3].

Take `Cc1ccc(F)c(S(=O)(=O)Nc2ccc(-c3ncc4c(N)n[nH]c4n3)cc2)c1` [Example 455]: the 50% inhibitory concentration (IC50) in experiment [2] was under 1.5 nM; in experiment [3], 390 nM. For `Cc1n[nH]c2nc(-c3ccc(NS(=O)(=O)c4cc(F)ccc4F)cc3)nc(OC3CCN(C4CCC4)CC3)c12` [Example 398], the figures for the IC50 in experiment [1] and in experiment [2] were 7.2 nM and 25 nM, respectively. In the case of `COc1ccc(F)c(S(=O)(=O)Nc2ccc(-c3nc(OC4CCNCC4F)c4c(C)n[nH]c4n3)cc2)c1` (stereo not shown) [Example 302], the half-inhibitory concentration (IC50) turned out to be 1.9 nM in experiment [2] and 86 nM in experiment [3]. On to `Nc1n[nH]c2cc(-c3ccc(NS(=O)(=O)c4cc(Cl)sc4Cl)cc3)ncc12` [Example 558], for which the half-maximal inhibitory concentration (IC50) in experiment [2] was found to be 13 nM; in experiment [3], 520 nM.

On to `O=S(=O)(Nc1ccc(-c2nc(Oc3cccnc3)c3cn[nH]c3n2)cc1)c1cc(Cl)ccc1Cl` [Example 27], for which the IC50 in experiment [2] was under 1.2 nM; in experiment [3], 1900 nM. For the molecule `COc1ccc(F)c(S(=O)(=O)Nc2ccc(-c3nc(C4CC4)c4cn[nH]c4n3)cc2)c1` [Example 147], the half-maximal inhibitory concentration (IC50) was found to be 1.5 nM in experiment [2] and 59 nM in experiment [3]. The like results for `COc1ccc(Cl)c(S(=O)(=O)Nc2ccc(-c3nc(C)c4cn[nH]c4n3)cc2)c1` [Example 491] were, in that order, 1.8 nM and 2000 nM. For `Cc1nc(-c2ccc(NS(=O)(=O)C3=C(Cl)SCC(Cl)=C3)cc2)nc2[nH]nc(N)c12` [Example 175], the results for the IC50 in experiment [2] and in experiment [3] were 19 nM and 520 nM, respectively. As for `COc1ccc(Cl)c(S(=O)(=O)Nc2ccc(-c3nc(OC4CCC(O)CC4)c4cn[nH]c4n3)cc2)c1` (stereo not shown) [Example 90], the concentration for half-maximal inhibition (IC50) in experiment [2] was 2.2 nM; in experiment [3], 200 nM.

With `O=S(=O)(Nc1ccc(-c2nc(N[C@H]3CC[C@@H](O)CC3)c3cn[nH]c3n2)cc1)c1cc(Cl)ccc1Cl` [Example 78], the 50% inhibitory concentration (IC50) in experiment [2] is 3.6 nM; in experiment [3] it was 2600 nM. The like results for `Cc1nc(-c2ccc(NS(=O)(=O)c3cccc(Cl)c3C#N)cc2)nc2[nH]nc(N)c12` [Example 470] were, in that order, 11 nM and 2000 nM. Regarding `Nc1n[nH]c2nc(-c3ccc(NS(=O)(=O)c4cc(F)c(F)cc4F)cc3)ncc12` [Example 516], the IC50 turned out to be 300 nM in experiment [2] and 640 nM in experiment [3].

With `COc1ccc(F)c(S(=O)(=O)Nc2ccc(-c3nc(OC4CNC4)c4cn[nH]c4n3)cc2)c1` [Example 192], the IC50 came out at 2.8 nM in experiment [2] and 140 nM in experiment [3].

The IC50 is the concentration needed to halve the response being measured.
